Tests used:
Assay type in all cases: cell-based
[1] = test system: GAPDH mRNA; test: GAPDH mRNA amount (QuantiGene bDNA method), Test Example 4; details: Human dermal papilla cell; human dermal papilla cells, 24 hours, concentration at which the mRNA amount is halved, average of 2 wells
Protocol: (§1) Human dermal papilla cells, which were purchased from Toyobo, were cultured in MEM (Invitrogen) containing 12% FBS.
(§2) The dermal papilla cells in passage 5 were sowed in a 96-well plate to give a density of 1×10^4 cells/well and cultured overnight. Then, the medium was replaced by a medium to which no compound was added or a medium containing the compounds and the culture was continued for additional 24 hours. After the completion of the culture, WNT-5A or GAPDH mRNA amount was measured by using QuantiGene High Volume Kit (Bayer Medical) by the branched DNA (bDNA) signal amplification method (Drug Metabolism and Disposition, 28(5), 608-616 (2000)). In accordance with the protocol attached to QuantiGene High Volume Kit, cells were lysed by using Lysis Mixture and the lysis solution was added to capture plate. Next, a set of probes specific to WNT-5A or GPDH was added and allowed to react at 53° C. for 20 hours. After washing the plate by using 0.1×SSC containing 0.03% lauryl sulfate, an amplification probe comprising bDNA was added and allowed to react at 46° C. for 1 hour. After washing the plate, a labeling probe labeled with alkaline phosphatase was added and allowed to react at 46° C. for 1 hour. After washing the plate, a substrate Lumi-Phos Plus was added and allowed to react at 46° C. for 30 minutes. Then, the luminescence was measured by using WALLAC 1420ARVOsx.
As GAPDH-specific probe set, use was made of bDNA probe set for human GAPDH (XenoTech LLC, B0960).
(§3) The amounts of WNT-5A and GAPDH mRNAs are expressed in relative values (%) to the control case of adding of no compound and the concentration of a compound at which the mRNA amount is halved (IC50) is calculated as an index of WNT-5A mRNA decreasing activity of the corresponding compound.

[2] = test system: Human dermal papilla cells; test: Dermal papilla cell growth promoting activity (WST-1, spheroid culture), Test Example 5; details: for activity at 1 µM / activity at 4 µM / activity at 16 µM: Homo sapiens, Human dermal papilla cell, 72 hours, average of 3 wells, read-out: ΔO.D. 450 nm/620 nm (% of control); for growth promoting activity on dermal papilla cells: at 1 μM; for growth of dermal papilla cells: no concentration stated
Protocol: as §1
The dermal papilla cells in passage 5 were sowed in a 96-well plate for spheroid culture to give a density of 1.5×10^4 cells/well and cultured overnight. Then, the medium was replaced by a medium to which no compound was added or a medium containing the compound and the culture was continued for additional 72 hours. After the completion of the culture, cells were counted by using a Cell Counting Kit (Wako Pure Chemicals). Five hours before the completion of the culture, WST-1 reagent at 1/10 amount per medium was added to each medium and then the optical density (O.D. 450 nm/620 nm) of the medium was measured at the completion of the culture. A positive correlation was observed between the cell number and optical density within the range of 0.25 to 4×10^4 cells/well.
In this table, each numerical value means an average of 6 wells (control group) or 3 wells (test groups). To compare the control group to the test groups, Student's t-test was employed: • *:P<0.05, **:P<0.01, ***:P<0.001.

[3] = test system: WNT-5A mRNA; test: Activity of decreasing WNT-5A mRNA amount (QuantiGene bDNA method), Test Example 4; details: human dermal papilla cells; for IC50: concentration at which the mRNA amount is halved, average of 2 wells
Protocol: as §1, §2
The WNT-5A-specific probe set was designed based on the sequence of the coding region of human WNT-5A mRNA. As capture extenders (CEs), 10 probes (SEQ ID NOs:12 to 21) were used; as label extenders (LEs), 31 probes (SEQ ID NOs:22 to 52) were employed; and as blockers, […] (SEQ ID NOs:53 to 60) were employed.
as §3

[4] = Homo sapiens, Human dermal papilla cell, 24 h

Row | SMILES | IC50 [1] | IC50 [3, 4] | IC50 ([3]; 24 hours) | activity at 1 µM [2] | activity at 4 µM [2] | activity at 16 µM [2] | growth promoting activity on dermal papilla cells [2] | IC50 ([3]; Human dermal papilla cell, 24 hours) | growth of dermal papilla cells [2] | WNT-5A mRNA amount / expression in dermal papilla cells [3]
1 | CC(=O)Oc1cc(OC(C)=O)c2c(c1Cl)CC(=O)/C=C/C=C\[C@@H]1O[C@H]1C[C@@H](C)OC2=O [Compound 2] | 26.4 µM |  |  | 143 ± 10.1% | 167 ± 8.5% | 241 ± 25.3% | significant growth promoting activity |  |  | 
2 | C[C@@H]1C[C@@H]2O[C@H]2/C=C\C=C\[C@H](O)Cc2c(Cl)c(O)cc(O)c2C(=O)O1 [Compound 5] | > 30 µM | 3.47 µM |  | 110 ± 45% | 175 ± 29.2% | 236 ± 26.4% |  |  |  | 
3 | O=C1c2no[n+]([O-])c2CCC1NO (stereo not shown) [Compound 24] | 21.1 µM |  |  | 108 ± 6.9% | 104 ± 10.5% | 120 ± 3.7% |  | 4.74 µM | excellent effect of promoting the growth | 
4 | C[C@@H]1C[C@@H]2O[C@H]2/C=C\C=C\C(=NO)Cc2c(Cl)c(O)cc(O)c2C(=O)O1 [Compound 35] | 4.29 µM |  |  | 161 ± 3.5% | 182 ± 3.7% | 159 ± 18.3% | significant growth promoting activity |  |  | 
5 | C[C@@H]1CC2OC2C/C=C\C[C@H](O)Cc2c(Cl)c(O)cc(O)c2C(=O)O1 (stereo partly shown) [Compound 38] | > 120 µM | 6.42 µM |  | 104 ± 2.6% | 89.6 ± 7.3% | 125 ± 5.1% |  |  |  | 
6 | C[C@@H]1C[C@@H]2O[C@H]2/C=C\C=C\C(=O)Cc2c(Cl)c(OCC(=O)Sc3ccccc3)cc(OCC(=O)Sc3ccccc3)c2C(=O)O1 [Compound 52] | 13.5 µM |  |  | 124.5 ± 1% | 143 ± 9.5% | 197 ± 5.4% | significant growth promoting activity |  | promote the growth | effectively inhibit
7 | C[C@@H]1C[C@@H]2O[C@H]2[C@H](Sc2ccccc2)/C=C/CC(=O)Cc2c(Cl)c(O)cc(O)c2C(=O)O1 [Compound 53] | 45.5 µM |  |  | 127 ± 14.3% | 150 ± 12.8% | 184 ± 3.6% | significant growth promoting activity |  | promote the growth | effectively inhibit
8 | CC1C/C=C/C(O)C/C=C/C(=O)Cc2cc(O)cc(O)c2C(=O)O1 (stereo not shown) [Compound 68] | 50.6 µM | 10.7 µM |  |  |  |  |  |  |  | 
9 | CC1CC2OC2CC2=CC=C(Cc3c(Cl)c(O)cc(O)c3C(=O)O1)O2 (stereo not shown) [Compound 77] | > 120 µM | 8.13 µM |  | 81.6 ± 4.4% | 86.3 ± 5% | 181 ± 21.7% |  |  | promote the growth | effectively inhibit

Continued, in another order:

Row | IC50 [1] | IC50 [3, 4] | IC50 ([3]; 24 hours) | SMILES | activity at 1 µM [2] | activity at 4 µM [2] | activity at 16 µM [2] | growth promoting activity on dermal papilla cells [2] | IC50 ([3]; Human dermal papilla cell, 24 hours) | growth of dermal papilla cells [2] | WNT-5A mRNA amount / expression in dermal papilla cells [3]
10 | 28.2 µM |  |  | C[C@@H]1C[C@@H]2O[C@H]2/C=C\C=C\C(=O)Cc2c(Cl)c(O)cc(O)c2C(=O)O1 [Compound 1, Radicicol] | 133 ± 11.6% | 184 ± 12.1% | 145 ± 13% | significant growth promoting activity |  |  | 
11 | > 30 µM | 3.46 µM |  | C[C@@H]1C[C@@H]2O[C@H]2CCCCC(=O)Cc2c(Cl)c(O)cc(O)c2C(=O)O1 [Compound 4] | 97.4 ± 24.4% | 148 ± 4.9% | 180 ± 6.9% |  |  |  | 
12 | 6.58 µM | < 1 µM | 0.63 µM | C[C@@H]1C[C@H](OC=O)[C@@H](Cl)/C=C\C=C\C(=O)Cc2c(Cl)c(O)cc(O)c2C(=O)O1 [Compound 18] | 116 ± 9% | 147 ± 11.3% | 211 ± 25.9% | significant growth promoting activity |  |  | 
13 | > 30 µM | 2.37 µM |  | CC(=O)S[C@@H]1/C=C/CC(=O)Cc2c(Cl)c(O)cc(O)c2C(=O)O[C@H](C)C[C@@H]2O[C@H]21 [Compound 54] | 80 ± 2.4% | 97.1 ± 5.6% | 135 ± 0.9% |  |  |  | 
14 | > 30 µM | 0.74 µM |  | CC(=O)S[C@@H]1/C=C\CC(=O)Cc2c(Cl)c(O)cc(O)c2C(=O)O[C@H](C)C[C@@H]2O[C@H]21 [Compound 55] | 89 ± 1.8% | 127 ± 7.2% | 176 ± 9.8% |  |  |  | 
15 | 80 µM | < 1 µM | 0.5 µM | C[C@@H]1C[C@@H]2O[C@H]2/C=C\C=C\C(=O)Cc2c(Cl)c(OC(=O)c3cccnc3)cc(OC(=O)c3cccnc3)c2C(=O)O1 [Compound 58] | 123 ± 1.8% | 150 ± 9.4% | 217 ± 14.5% | significant growth promoting activity |  | promote the growth | effectively inhibit
16 | 109 µM | 8.28 µM |  | CC1C/C=C/C(O)C/C=C/C(=O)Cc2c(Cl)c(O)cc(O)c2C(=O)O1 (stereo not shown) [Compound 65] | 92.1 ± 6.7% | 87.6 ± 8.7% | 141 ± 5.3% |  |  |  | 
17 | > 120 µM | 9.37 µM |  | CC1CC2OC2CC(O)CCC(=O)Cc2c(Cl)c(O)cc(O)c2C(=O)O1 (stereo not shown) [Compound 73] | 91.7 ± 5.7% | 81.2 ± 7.8% | 206 ± 9.2% |  |  |  | 
18 | 55.9 µM | 8.56 µM |  | C[C@@H]1C[C@@H]2O[C@H]2/C=C\C=C\C(=O)Cc2c(Cl)c(OC3OC(CO)C(O)C3O)cc(O)c2C(=O)O1 (stereo partly shown) [Compound 76] | 80 ± 5.6% | 77.1 ± 7% | 121 ± 6.3% |  |  |  | 
19 | 38.2 µM | 0.9 µM |  | COc1cc(O)c2c(c1)/C=C/CC(O)C(O)C(=O)/C=C\CC(C)OC2=O (stereo not shown) [Compound 79] | 87.5 ± 9.9% | 98.6 ± 3.6% | 120 ± 4.1% |  |  | excellent effect of promoting the growth | 

Source: patent US20050182129A1, “Hair growth tonic” (priority 2002, published 2005)
